Data from ChEMBL document CHEMBL5154869, “Discovery of 4-((E)-3,5-dimethoxy-2-((E)-2-nitrovinyl)styryl)aniline derivatives as potent and orally active NLRP3 inflammasome inhibitors for colitis” (Eur J Med Chem, 2022).

Assays:
[1] = Cytotoxicity against human L02 cells assessed as reduction in cell viability incubated for 24 hrs by MTT assay; assay type: toxicity, cell-based
[2] = target: NACHT, LRR and PYD domains-containing protein 3 (Mus musculus) (UniProt Q8R4B8); experiment: Inhibition of NLRP3 inflammasome activation in LPS-stimulated mouse J774.A1 cells assessed as reduction in pyroptosis at 10 uM pretreated for 4 hrs with LPS and for 30 mins with compound prior to ATP addition and measured after 30 mins by PI/Hoechst33342 staining based analysis; assay type: cell-based; settings: time 60.0 min
[3] = target: NACHT, LRR and PYD domains-containing protein 3 (Mus musculus, UniProt Q8R4B8); experiment: Inhibition of NLRP3 inflammasome activation in LPS/nigericin-treated C57BL/6 mouse bone marrow-derived macrophages assessed as reduction in IL-1beta secretion preincubated for 3 hrs with LPS and for 30 mins with compound prior to nigericin addition and measured after 30 mins by ELISA; assay type: cell-based, BMDM
[4] = Metabolic stability in human hepatocytes assessed as intrinsic clearance by LC-MS/MS analysis; assay type: ADME, cell-based, Hepatocyte; settings: read-out: CLH
[5] = Metabolic stability in human liver microsomes assessed as half life by LC-MS/MS analysis; assay type: ADME, Microsome
[6] = Metabolic stability in human liver microsomes assessed as intrinsic clearance by LC-MS/MS analysis; assay type: ADME, Microsome; settings: read-out: CLH

Sequence of NACHT, LRR and PYD domains-containing protein 3 (Mus musculus) (Q8R4B8 whole entry, the tested form may be a part): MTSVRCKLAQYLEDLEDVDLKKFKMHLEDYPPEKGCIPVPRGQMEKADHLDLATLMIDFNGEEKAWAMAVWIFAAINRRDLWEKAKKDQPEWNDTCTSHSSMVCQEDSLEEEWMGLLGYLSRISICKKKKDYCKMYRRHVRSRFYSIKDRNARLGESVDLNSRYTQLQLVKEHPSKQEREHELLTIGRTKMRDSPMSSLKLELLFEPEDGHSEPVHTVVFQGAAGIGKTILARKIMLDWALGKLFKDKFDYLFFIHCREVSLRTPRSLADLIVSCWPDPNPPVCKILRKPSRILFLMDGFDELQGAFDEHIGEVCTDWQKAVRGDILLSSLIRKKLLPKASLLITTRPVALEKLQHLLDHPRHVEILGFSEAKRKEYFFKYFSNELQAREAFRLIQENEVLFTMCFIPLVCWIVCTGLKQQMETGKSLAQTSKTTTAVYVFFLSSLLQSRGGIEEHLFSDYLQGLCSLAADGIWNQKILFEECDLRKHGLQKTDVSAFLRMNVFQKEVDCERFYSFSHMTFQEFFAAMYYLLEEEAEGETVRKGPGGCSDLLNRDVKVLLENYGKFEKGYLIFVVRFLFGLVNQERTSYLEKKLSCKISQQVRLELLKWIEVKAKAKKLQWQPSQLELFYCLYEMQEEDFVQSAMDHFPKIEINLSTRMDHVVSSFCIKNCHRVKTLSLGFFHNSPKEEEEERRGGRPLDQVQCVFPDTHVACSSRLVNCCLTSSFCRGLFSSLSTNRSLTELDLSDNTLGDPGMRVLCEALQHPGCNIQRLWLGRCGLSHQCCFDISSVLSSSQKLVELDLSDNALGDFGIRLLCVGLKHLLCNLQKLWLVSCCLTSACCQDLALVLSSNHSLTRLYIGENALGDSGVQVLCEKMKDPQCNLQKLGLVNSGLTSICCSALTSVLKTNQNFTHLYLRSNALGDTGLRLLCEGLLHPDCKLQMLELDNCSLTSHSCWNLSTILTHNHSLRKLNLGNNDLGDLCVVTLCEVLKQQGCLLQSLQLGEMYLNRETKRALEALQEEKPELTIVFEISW
Sequence of NACHT, LRR and PYD domains-containing protein 3 (Q8R4B8 whole entry, the tested form may be a part): as above

Work on COc1cccc(C(=O)Nc2ccc(/C=C/c3cc(OC)cc(OC)c3/C=C/[N+](=O)[O-])cc2)c1 yielded an IC50 at 24 h [1] of over 100 µM and an inhibition [2] of 24%.
Compound COc1cc(/C=C/c2ccc(NC(=O)COc3ccccc3)cc2)c(/C=C/[N+](=O)[O-])c(OC)c1 has an IC50 at 24 h [1] of over 100 µM and an inhibition [2] of 7.5%.
Work on COc1cc(/C=C/c2ccc(NC(=O)/C=C/c3ccccc3)cc2)c(/C=C/[N+](=O)[O-])c(OC)c1 yielded an IC50 at 24 h [1] of over 100 µM, an IC50 [3] of over 10 µM and an inhibition [2] of 30.7%.
Compound COc1cc(/C=C/c2ccc(NC(=O)c3cccc4ccccc34)cc2)c(/C=C/[N+](=O)[O-])c(OC)c1 has an IC50 at 24 h [1] of over 100 µM and an inhibition [2] of 4.62%.
In the case of CCc1ccc(C(=O)Nc2ccc(/C=C/c3cc(OC)cc(OC)c3/C=C/[N+](=O)[O-])cc2)cc1, the IC50 at 24 h [1] is reported as over 100 µM and the inhibition [2] is reported as 39%.
Compound COc1cc(/C=C/c2ccc(NC(=O)c3ccc(I)cc3)cc2)c(/C=C/[N+](=O)[O-])c(OC)c1 has an IC50 at 24 h [1] of over 100 µM and an inhibition [2] of 30.7%.
Work on COc1cc(/C=C/c2ccc(NC(=O)c3ccccn3)cc2)c(/C=C/[N+](=O)[O-])c(OC)c1 yielded an IC50 at 24 h [1] of over 100 µM and an inhibition [2] of 60%.
Compound COc1cc(/C=C/c2ccc(NC(=O)c3cccc(F)c3)cc2)c(/C=C/[N+](=O)[O-])c(OC)c1 has an IC50 at 24 h [1] of over 100 µM and an inhibition [2] of 39.9%.
Compound COc1cc(/C=C/c2ccc(NC(=O)c3ccccc3F)cc2)c(/C=C/[N+](=O)[O-])c(OC)c1 has an IC50 at 24 h [1] of over 100 µM and an inhibition [2] of 38.9%.
For COc1cc(/C=C/c2ccc(NC(=O)c3ccc4ccccc4c3)cc2)c(/C=C/[N+](=O)[O-])c(OC)c1, the IC50 at 24 h [1] was 131 µM, the IC50 [3] was over 10 µM and the inhibition [2] was 57.2%.
COc1cc(/C=C/c2ccc(NC(=O)C3CCCO3)cc2)c(/C=C/[N+](=O)[O-])c(OC)c1 (centres undefined) showed an IC50 at 24 h [1] of over 100 µM and an inhibition [2] of 65.2%.
For COc1cc(/C=C/c2ccc(NC(=O)c3cccs3)cc2)c(/C=C/[N+](=O)[O-])c(OC)c1, the IC50 at 24 h [1] was over 100 µM, the IC50 [3] was 2.15 µM and the inhibition [2] was 66%.
Compound COc1cc(/C=C/c2ccc(NC(=O)c3ccoc3)cc2)c(/C=C/[N+](=O)[O-])c(OC)c1 has an IC50 at 24 h [1] of over 100 µM and an inhibition [2] of 64.2%.
COc1cc(/C=C/c2ccc(NC(=O)c3cc4ccccc4o3)cc2)c(/C=C/[N+](=O)[O-])c(OC)c1 showed an IC50 at 24 h [1] of over 100 µM and an inhibition [2] of 6.47%.
With COc1cc(/C=C/c2ccc(NC(=O)c3ccccc3)cc2)c(/C=C/[N+](=O)[O-])c(OC)c1 the IC50 at 24 h [1] was over 100 µM, the IC50 [3] was 1.56 µM and the inhibition [2] was 72.2%.
COc1cc(/C=C/c2ccc(NC(=O)c3cccc(Br)c3)cc2)c(/C=C/[N+](=O)[O-])c(OC)c1 showed an IC50 at 24 h [1] of over 100 µM and an inhibition [2] of 20.1%.
In the case of COc1cc(/C=C/c2ccc(NC(=O)c3ccc(F)cc3)cc2)c(/C=C/[N+](=O)[O-])c(OC)c1, the IC50 at 24 h [1] is reported as over 100 µM, the IC50 [3] is reported as 9.34 µM and the inhibition [2] is reported as 44%.
COc1ccc(C(=O)Nc2ccc(/C=C/c3cc(OC)cc(OC)c3/C=C/[N+](=O)[O-])cc2)cc1 gave an IC50 at 24 h [1] of over 100 µM, an IC50 [3] of over 10 µM and an inhibition [2] of 41%.
In the case of COc1cc(/C=C/c2ccc(NC(=O)c3ccccc3C)cc2)c(/C=C/[N+](=O)[O-])c(OC)c1, the IC50 at 24 h [1] is reported as over 100 µM and the inhibition [2] is reported as 39%.
Compound COc1cc(/C=C/c2ccc(NC(=O)C(C)(C)C)cc2)c(/C=C/[N+](=O)[O-])c(OC)c1 has an IC50 at 24 h [1] of over 100 µM and an inhibition [2] of 52.7%.
Work on COc1cc(/C=C/c2ccc(NC(=O)c3ccc(Cl)cc3)cc2)c(/C=C/[N+](=O)[O-])c(OC)c1 yielded an IC50 at 24 h [1] of over 100 µM and an inhibition [2] of 50%.
Compound C=C1C(=O)[C@]23[C@H](O)[C@H]1CC[C@H]2[C@@]12CO[C@]3(O)[C@@H](O)[C@@H]1C(C)(C)CC[C@@H]2O [ORIDONIN] has an IC50 at 24 h [1] of 42.2 µM and an inhibition [2] of 73.8%.
COc1cc(/C=C/c2ccc(NC(=O)c3ccc(Br)cc3)cc2)c(/C=C/[N+](=O)[O-])c(OC)c1 showed an IC50 at 24 h [1] of over 100 µM and an inhibition [2] of 46.2%.
O=[N+]([O-])/C=C/c1ccc2c(c1)OCO2 gave an IC50 at 24 h [1] of 39.2 µM and an inhibition [2] of 75.1%.
CCOc1ccc(C(=O)Nc2ccc(/C=C/c3cc(OC)cc(OC)c3/C=C/[N+](=O)[O-])cc2)cc1 showed an IC50 at 24 h [1] of over 100 µM and an inhibition [2] of 39.9%.
Work on COc1cc(/C=C/c2ccc(NC(=O)c3cccc(Cl)c3)cc2)c(/C=C/[N+](=O)[O-])c(OC)c1 yielded an IC50 at 24 h [1] of over 100 µM and an inhibition [2] of 24%.
For COc1cc(/C=C/c2ccc(NC(=O)c3ccc(C)cc3)cc2)c(/C=C/[N+](=O)[O-])c(OC)c1, the IC50 at 24 h [1] was over 100 µM and the inhibition [2] was 28.6%.
COc1cc(/C=C/c2ccc(NC(=O)c3cccc(C)c3)cc2)c(/C=C/[N+](=O)[O-])c(OC)c1 gave an IC50 at 24 h [1] of over 100 µM and an inhibition [2] of 39.9%.
COc1cc(/C=C/c2ccc(NC(=O)c3ccccc3OC)cc2)c(/C=C/[N+](=O)[O-])c(OC)c1 showed an IC50 at 24 h [1] of over 100 µM and an inhibition [2] of 31%.
COc1cc(/C=C/c2ccc(NC(=O)c3ccc(C)o3)cc2)c(/C=C/[N+](=O)[O-])c(OC)c1 showed an IC50 at 24 h [1] of over 100 µM and an inhibition [2] of 69.5%.
With COc1cc(/C=C/c2ccc(NC(=O)c3ccccc3Cl)cc2)c(/C=C/[N+](=O)[O-])c(OC)c1 the IC50 at 24 h [1] was over 100 µM and the inhibition [2] was 28.9%.
Compound COc1cc(/C=C/c2ccc(NC(=O)c3ccccc3Br)cc2)c(/C=C/[N+](=O)[O-])c(OC)c1 has an IC50 at 24 h [1] of over 100 µM, an IC50 [3] of over 10 µM and an inhibition [2] of 36%.
In the case of COc1cc(/C=C/c2ccc(NC(=O)C3CC3)cc2)c(/C=C/[N+](=O)[O-])c(OC)c1, the CLint scaled [4] is reported as 11.7 mL/min/kg, the half-life [5] is reported as 59.7 min and the microsomal CLint [6] is reported as 23.2 µL/min/mg.
